The target in data set [1] is T1, human serotonin transporter (Homo sapiens (Human), UniProt P31645). Kind of data set: hSERT binding assay ([3H]Imipramine).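 On all read-outs here: displacement of radiolabeled imipramine from the transporter, incubated 30 min at 27 °C in Tris-HCl pH 7.4 with NaCl and KCl, bound radioactivity counted after filtration, nonspecific binding defined with 200 uM imipramine.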 To be noted: membrane from HEK293 cells; for inhibition at 10 µM: read-out: hSERT binding assay %-inhibition (10 uM); for IC50: 2 nM [3H]Imipramine.
Data set [2] concerns the target T2, human norepinephrine transporter (Homo sapiens (Human), UniProt P23975). The experiment in a line: hNET binding assay ([3H]Nisoxetine). To be noted: for inhibition at 10 µM: read-out: hNET binding assay %-inhibition (10 uM). The method, then:
NE transporter binding assay for evaluating binding of the compound to the norepinephrine transporter was carried out using human recombinant norepinephrine transporter membrane (PerkinElmer Life and Analytical Sciences, USA) expressed in MDCK cells and radioisotope [^3H]Nisoxetine (PerkinElmer).
That is, the test drug, 6 nM [^3H]Nisoxetine, norepinephrine transporter membrane (11 ug/well), 120 mM NaCl and 50 mM Tris-HCl buffer (pH 7.4) containing 5 mM KCl were added to obtain a reaction mixture with a final volume of 0.25 ml. After incubation for 60 minutes at 4° C., the mixture was quickly passed through a Filtermat A glass fiber filter pre-soaked with 0.5% (w/v) PEI (polyethyleneimine) using Inotech Harvester (Inotech) to terminate the reaction. After washing with cold washing buffer (50 mM Tris-HCl, pH 7.4, 0.9% NaCl) solution, the filter was covered with MeltiLex and sealed in a sample bag. After drying in an oven, radioactivity was counted using MicroBeta Plus (Wallac).
Non-specific binding was measured in the presence of 1 uM desipramine. The IC50 value of the test drug was calculated from non-linear regression analysis (GraphPad Prism Program, San Diego, USA) of each %-inhibition value obtained from the drug with concentrations of 7th and 8th steps.

In data set [3] the target is T3, human dopamine transporter (Homo sapiens (Human), UniProt Q01959). The experiment in a line: hDAT binding assay ([3H]WIN35,428).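 On all read-outs here: displacement of the radioligand from the transporter membranes, incubated 120 min at 4 °C in Tris-HCl buffer with NaCl, pH 7.4, measured by filter-bound radioactivity counting.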 To be noted: for IC50: membrane from CHO-K1 cells, 8 nM [3H]WIN35,428; for inhibition at 10 µM: read-out: hDAT binding assay %-inhibition (10 uM).
Data set [4] addresses T1, human serotonin transporter. The experiment in a line: hSERT reuptake assay (HEK-hSERT, FDSS6000). Format: cell-based. To be noted: HEK-hSERT cells; Table 3.
For data set [5], the target named is T2, human norepinephrine transporter. Kind of data set: hNET reuptake assay (HEK-hNET, FDSS6000). Type of data set: cell-based. The note with it: HEK-hNET cells; Table 3.
For data set [6], the target named is T3, human dopamine transporter. The experiment in a line: hDAT reuptake assay (HEK-hDAT, FDSS6000). To be noted: HEK-hDAT cells; Table 3. Format: cell-based.

This is an account of results in patent publication US9120771B2, “Azetidine derivative and antidepressant composition including the same” (KOREA INSTITUTE OF SCIENCE AND TECHNOLOGY, priority 2011, dated 2015).

Where two headings read alike, the source gives them in different places.

T2 sequence (P23975 whole entry): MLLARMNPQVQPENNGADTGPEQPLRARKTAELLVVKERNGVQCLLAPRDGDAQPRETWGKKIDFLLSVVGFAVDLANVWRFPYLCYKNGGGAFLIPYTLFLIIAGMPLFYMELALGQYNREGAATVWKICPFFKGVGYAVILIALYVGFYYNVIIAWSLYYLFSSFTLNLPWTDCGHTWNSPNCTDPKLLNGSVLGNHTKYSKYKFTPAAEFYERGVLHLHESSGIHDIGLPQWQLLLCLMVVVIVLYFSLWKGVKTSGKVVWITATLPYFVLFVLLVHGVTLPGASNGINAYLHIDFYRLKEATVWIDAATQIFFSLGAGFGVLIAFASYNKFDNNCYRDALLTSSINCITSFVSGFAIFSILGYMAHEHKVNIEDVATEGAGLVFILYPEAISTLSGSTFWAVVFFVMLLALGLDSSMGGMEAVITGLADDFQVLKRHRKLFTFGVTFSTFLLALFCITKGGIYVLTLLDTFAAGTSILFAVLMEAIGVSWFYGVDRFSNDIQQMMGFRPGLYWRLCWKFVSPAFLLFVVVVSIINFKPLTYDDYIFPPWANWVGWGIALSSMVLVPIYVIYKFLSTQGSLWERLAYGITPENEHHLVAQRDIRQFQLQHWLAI
T3 sequence (Q01959 whole entry): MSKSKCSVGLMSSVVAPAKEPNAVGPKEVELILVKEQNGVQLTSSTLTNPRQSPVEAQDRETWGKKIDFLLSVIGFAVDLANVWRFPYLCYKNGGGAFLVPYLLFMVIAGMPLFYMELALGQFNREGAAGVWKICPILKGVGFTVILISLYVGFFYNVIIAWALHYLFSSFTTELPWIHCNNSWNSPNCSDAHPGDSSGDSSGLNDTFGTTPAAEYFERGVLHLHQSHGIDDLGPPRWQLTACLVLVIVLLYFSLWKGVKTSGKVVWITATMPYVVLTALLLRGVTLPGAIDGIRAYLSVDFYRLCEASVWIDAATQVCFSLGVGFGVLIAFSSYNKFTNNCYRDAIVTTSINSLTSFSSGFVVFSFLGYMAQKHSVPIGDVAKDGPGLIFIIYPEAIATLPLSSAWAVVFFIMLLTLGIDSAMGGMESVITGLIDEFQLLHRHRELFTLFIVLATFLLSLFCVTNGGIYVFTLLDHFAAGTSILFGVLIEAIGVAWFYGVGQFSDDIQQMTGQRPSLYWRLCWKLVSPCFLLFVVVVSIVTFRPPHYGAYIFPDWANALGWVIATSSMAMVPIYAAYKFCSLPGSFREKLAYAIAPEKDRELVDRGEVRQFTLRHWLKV
T1 sequence (P31645 whole entry): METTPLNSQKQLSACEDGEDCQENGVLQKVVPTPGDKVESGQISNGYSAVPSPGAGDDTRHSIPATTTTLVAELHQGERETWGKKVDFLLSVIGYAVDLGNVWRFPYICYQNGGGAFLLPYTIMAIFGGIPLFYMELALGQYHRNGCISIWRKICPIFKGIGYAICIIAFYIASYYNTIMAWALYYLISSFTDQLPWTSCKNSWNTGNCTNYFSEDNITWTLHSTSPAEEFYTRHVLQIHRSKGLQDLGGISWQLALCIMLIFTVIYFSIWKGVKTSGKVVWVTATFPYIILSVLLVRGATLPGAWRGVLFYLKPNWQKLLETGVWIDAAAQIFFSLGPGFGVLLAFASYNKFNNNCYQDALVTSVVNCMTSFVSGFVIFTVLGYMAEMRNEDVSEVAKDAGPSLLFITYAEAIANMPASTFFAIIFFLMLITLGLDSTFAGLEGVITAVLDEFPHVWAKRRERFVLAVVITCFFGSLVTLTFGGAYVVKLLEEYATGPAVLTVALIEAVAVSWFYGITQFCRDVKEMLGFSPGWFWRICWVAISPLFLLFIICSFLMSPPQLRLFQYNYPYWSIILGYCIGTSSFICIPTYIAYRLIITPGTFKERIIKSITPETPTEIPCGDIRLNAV

Regarding `Cc1ccc(OC(c2ccc(Cl)c(Cl)c2)C2CNC2)cc1.Cl` (centres unmarked) [KHG26776, 3-((3,4-dichlorophenyl)(para-tolyloxy)methyl)azetidine hydrochloride], the melting point (as a rule, the temperature of the solid-liquid transition) worked out at 193 °C. In data set [1], the inhibition (as a rule, the change of the read-out against control, counted positive when it falls) at 10 µM stood at 100% and the IC50 (commonly the concentration needed to halve the response being measured) came out at 5.67 nM. Also, in data set [2], the half-inhibitory concentration (IC50) was 27.1 nM and the inhibition at 10 µM is 100%. Moreover, in data set [3], the IC50 worked out at 168 nM and the inhibition at 10 µM was determined as 95%. Moreover, the IC50 in data set [4] stood at 700 nM. Besides, in data set [5], the midpoint of inhibition, the IC50, lay at 500 nM. In addition, in data set [6], the IC50 was found to be 300 nM.

In turn, `Cc1cccc(OC(c2ccc(Cl)c(Cl)c2)C2CNC2)c1.Cl` (centres unmarked) [KHG26775, 3-((3,4-dichlorophenyl)(meta-tolyloxy)methyl)azetidine hydrochloride] showed a melting point of 200 °C. In data set [1], the inhibition at 10 µM worked out at 99% and the IC50 stood at 19.8 nM. In addition, in data set [2] (10 uM, membrane from MDCK cells), the inhibition at 10 µM worked out at 100%. For the same compound, the IC50 in data set [2] (membrane from MDCK cells, 6 nM [3H]Nisoxetine) amounted to 28.4 nM. In addition, in data set [3], the IC50 came out at 61.8 nM and the inhibition at 10 µM is 99%. For the same compound, the IC50 in data set [4] came to 600 nM. For the same compound, in data set [5], the IC50 is 600 nM. Moreover, in data set [6], the IC50 is 400 nM.
